Bridge positions count the residues as written; N and C are the ends. Square brackets hold non-standard residues; d marks the D form. Peptide text beside a SMILES is read from it. Phe(4-CF3) = N[C@@H](Cc1ccc(C(F)(F)F)cc1)C(=O)O; Bip = N[C@@H](Cc1ccc(-c2ccccc2)cc1)C(=O)O; NMeF = CN[C@@H](Cc1ccccc1)C(=O)O; NMeE = CN[C@@H](CCC(=O)O)C(=O)O; NMeA = CN[C@@H](C)C(=O)O

Sequence of human PCSK9 (Q8NBP7 153-692): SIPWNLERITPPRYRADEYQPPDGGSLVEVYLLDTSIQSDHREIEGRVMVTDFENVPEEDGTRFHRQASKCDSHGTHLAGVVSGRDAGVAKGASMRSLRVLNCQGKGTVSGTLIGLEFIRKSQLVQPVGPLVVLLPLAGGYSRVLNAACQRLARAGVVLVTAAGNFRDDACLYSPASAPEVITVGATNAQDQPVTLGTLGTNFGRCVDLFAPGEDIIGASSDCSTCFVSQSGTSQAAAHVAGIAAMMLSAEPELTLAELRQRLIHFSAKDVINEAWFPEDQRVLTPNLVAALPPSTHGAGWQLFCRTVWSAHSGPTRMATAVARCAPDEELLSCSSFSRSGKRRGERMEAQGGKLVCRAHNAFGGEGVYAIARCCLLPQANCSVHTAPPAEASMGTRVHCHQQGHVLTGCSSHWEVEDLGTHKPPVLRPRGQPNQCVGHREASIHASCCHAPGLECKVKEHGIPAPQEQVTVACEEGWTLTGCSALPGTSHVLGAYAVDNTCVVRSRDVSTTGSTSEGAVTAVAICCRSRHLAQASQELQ
Sequence of human PCSK9 (Q8NBP7 31-152 partner limits assumed): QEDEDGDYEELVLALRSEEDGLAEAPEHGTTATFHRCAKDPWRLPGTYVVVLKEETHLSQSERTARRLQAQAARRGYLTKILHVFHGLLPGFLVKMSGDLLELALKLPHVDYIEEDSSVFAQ

The target of the first experiment is human PCSK9 (Homo sapiens, UniProt Q8NBP7). The experiment is described as follows: PCSK9 ligand binding assay (TR-FRET): interference with binding of human PCSK9 to human LDLR. As to conditions: PCSK9 FRET assay, efficacy (Amax); 0% = DMSO, 100% = 1 uM unlabeled human PCSK9. The method, then:
The activity of cyclic polypeptides according to the disclosure as PCSK9 can be assessed using a time resolved fluorescence resonance energy transfer (TR-FRET) assay. This time resolved fluorescence resonance energy transfer (TR-FRET) assay measures the ability of a cyclic polypeptides of the disclosure to interfere with the binding of human PCSK9 to human LDLR, providing measures of both potency (IC50) and efficacy (Amax).
Solutions of varying concentrations are prepared by diluting a cyclic polypeptide of the disclosure in dimethylsulfoxide (DMSO) and the resulting solutions are pipetted into a plate. DMSO is used as a negative control. An intermediate plate is prepared in by transferring a known amount of each polypeptide solution and of the control from the compound plate into a corresponding well containing assay buffer and mixing thoroughly. A third plate is then prepared to be used for the assay by adding Human PCSK9 Alexa Fluor 647, followed by a known amount of each solution from the intermediate plate. Unlabeled human PCSK9 in assay buffer containing DMSO is used as a positive control for the assay. Following incubation, Human LDLR extracellular domain-Europium Kryptate is added to each well of the assay plate and the resulting mixture is incubated for an additional period of time. The TR-FRET signal is measured and the FRET ratio (FRET/Europium) is used to calculate the IC50 and Amax of the cyclic polypeptides.
The PCSK9 binding of the cyclic polypeptides of the disclosure were measured using a time resolved fluorescence resonance energy transfer (TR-FRET) assay. This time resolved fluorescence resonance energy transfer (TR-FRET) assay measures the ability of a cyclic polypeptide of the disclosure to interfere with the binding of human PCSK9 to human LDLR, providing measures of both potency (IC50) and efficacy (Amax).
• Human PCSK9 • Human PCSK9 Alexa Fluor 647 • Human LDLR extracellular domain-Europium Kryptate • Proxi plate-low volume assay plate (PerkinElmer #6008280) • Greiner V-bottom (Greiner BioOne #781280) • Assay Buffer • 20 mM HEPES, pH 7.5 • 150 mM NaCl • 1 mM CaCl2 • 0.01% v/v Tween20 • 0.01% w/v BSA
A master compound plate was prepared in a Greiner V bottom plate by diluting cyclic polypeptides of the disclosure in dimethylsulfoxide to the correct concentration for the desired top concentration based on the desired final concentration: for a 30 uM final concentration the master plate concentration is 1.5 mM (68 uL DMSO+12 uL 10 mM of a cyclic polypeptide of the disclosure), for a 10 uM final concentration the master plate concentration is 0.5 mM (76 uL DMSO+4 uL 10 mM of a cyclic polypeptide of the disclosure), for a 3 uM final concentration the master plate concentration is 150 uM (69 uL DMSO+1 uL 10 mM a cyclic peptide of the disclosure). These solutions were pipetted into columns 1 and 11 of the compound plate. Threefold serial dilutions were generated in columns 2-10 and 12-20 of the compound plate by transferring 10 uL into 20 μL of DMSO. Columns 21 and 22 of the compound plate were negative controls containing DMSO alone.
An intermediate plate was generated in a Greiner V bottom plate by transferring 8 uL from each well of the master plate into a corresponding well containing 92 μL of assay buffer and mixing thoroughly.
A Proxi plate-low volume assay plate was used for the assay. To all wells of the plate was added 10 μL of 16 nM Human PCSK9 Alexa Fluor 647, followed by 5 uL from the intermediate plate. […] Following a 30 minute incubation, 5 μL of 4 nM Human LDLR extracellular domain-Europium Kryptate was added and the mixture was incubated for an additional 2 hours.
The TR-FRET signal was measured on an EnVision or PheraStar instrument with a […] delay, 330 nm excitation and 665 nm emission (FRET), and 330 nm excitation and 615 nm (Europium). The FRET ratio (FRET/Europium) was used for calculations. […]
For orientation: Time-resolved FRET reads energy transfer from a long-lived donor to a nearby acceptor.
As to `CC(C)[C@@H]1NC(=O)[C@H](Cc2ccccc2)NC(=O)CSC[C@@H](C(=O)NCC(N)=O)NC(=O)[C@@H]2CCCN2C(=O)[C@H](CO)NC(=O)[C@H](CC(N)=O)NC(=O)[C@H](CCC(=O)O)N(C)C(=O)[C@H](Cc2ccc(-c3ccccc3)cc2)NC(=O)[C@H](Cc2ccccc2)N(C)C(=O)[C@H](CO)NC(=O)[C@H]([C@@H](C)O)NC(=O)[C@H]([C@@H](C)O)NC(=O)[C@H](CC(=O)O)NC1=O` [Example 1-1] ({CH2CO}-FVDTTS[NMeF][Bip][NMeE]NSPCG-NH2; thioether N-13), the Maximum % inhibition is 65%. In turn, `CC(C)[C@@H]1NC(=O)[C@H](Cc2ccccc2)NC(=O)CSC[C@@H](C(=O)NCC(N)=O)NC(=O)[C@@H]2CCCN2C(=O)[C@H](CCCNC(=N)N)NC(=O)[C@H](CC(=O)O)NC(=O)[C@H](C)N(C)C(=O)[C@H](Cc2ccc(-c3ccccc3)cc2)NC(=O)[C@H](C)N(C)C(=O)[C@H](Cc2ccc(-c3ccccc3)cc2)NC(=O)[C@H]([C@@H](C)O)NC(=O)[C@H]([C@@H](C)O)NC(=O)[C@H](CO)NC1=O` [Example 1-2, Ac*-F-V-S-T-T-B-(N-Me)A-B-(N-Me)A-D-R-P-C*-G-NH2] returned a Maximum % inhibition of 41%.

`CC(C)[C@@H]1NC(=O)[C@H](Cc2ccccc2)NC(=O)CSC[C@@H](C(=O)NCC(N)=O)NC(=O)[C@@H]2CCCN2C(=O)[C@H](CO)NC(=O)[C@H](CC(N)=O)NC(=O)[C@H](C)N(C)C(=O)[C@H](Cc2ccc(-c3ccccc3)cc2)NC(=O)[C@H](Cc2ccccc2)N(C)C(=O)[C@H](CO)NC(=O)[C@H]([C@@H](C)O)NC(=O)[C@H]([C@@H](C)O)NC(=O)[C@H](CC(=O)O)NC1=O` [Example 1-3, Ac*-F-V-D-T-T-S-(N-Me)F-B-(N-Me)A-N-S-P-C*-G-NH2] ({CH2CO}-FVDTTS[NMeF][Bip][NMeA]NSPCG-NH2; thioether N-13) had a Maximum % inhibition of 55%. Regarding `CC(C)[C@@H]1NC(=O)[C@H](Cc2ccccc2)NC(=O)CSC[C@@H](C(=O)NCC(N)=O)NC(=O)[C@@H]2CCCN2C(=O)[C@H](Cc2cnc[nH]2)NC(=O)[C@H](CC(N)=O)NC(=O)[C@H](C)N(C)C(=O)[C@H](Cc2ccc(-c3ccccc3)cc2)NC(=O)[C@H](C)N(C)C(=O)[C@H](Cc2ccc(O)cc2)NC(=O)[C@H]([C@@H](C)O)NC(=O)[C@H](CO)NC(=O)[C@H](CC(=O)O)NC1=O` [Example 1-4, Ac*-F-V-D-S-T-Y-(N-Me)A-B-(N-Me)A-N-H-P-C*-G-NH2] ({CH2CO}-FVDSTY[NMeA][Bip][NMeA]NHPCG-NH2; thioether N-13), the Maximum % inhibition stood at 60%. In turn, `CC(C)[C@@H]1NC(=O)[C@H](Cc2ccccc2)NC(=O)CSC[C@@H](C(=O)NCC(N)=O)NC(=O)[C@@H]2CCCN2C(=O)[C@H](CO)NC(=O)[C@H](CCC(=O)O)NC(=O)[C@H](C)N(C)C(=O)[C@H](Cc2ccc(-c3ccccc3)cc2)NC(=O)[C@H](Cc2ccccc2)N(C)C(=O)[C@H](CO)NC(=O)[C@H]([C@@H](C)O)NC(=O)[C@H]([C@@H](C)O)NC(=O)[C@H](CC(=O)O)NC1=O` [Example 1-5, Ac*-F-V-D-T-T-S-(N-Me)F-B-(N-Me)A-E-S-P-C*-G-NH2] ({CH2CO}-FVDTTS[NMeF][Bip][NMeA]ESPCG-NH2; thioether N-13) gave a Maximum % inhibition of 95%.

Compound `CC(C)[C@@H]1NC(=O)[C@H](Cc2ccccc2)NC(=O)CSC[C@@H](C(=O)NCC(N)=O)NC(=O)[C@@H]2CCCN2C(=O)[C@H](CO)NC(=O)[C@H](CCC(=O)O)NC(=O)[C@H](C)N(C)C(=O)[C@H](Cc2ccc(C(F)(F)F)cc2)NC(=O)[C@H](Cc2ccccc2)N(C)C(=O)[C@H](CO)NC(=O)[C@H]([C@@H](C)O)NC(=O)[C@H]([C@@H](C)O)NC(=O)[C@H](CC(=O)O)NC1=O` [Example 1-6, Ac*-F-V-D-T-T-S-(N-Me)F-(p-CF3)F-(N-Me)A-E-S-P-C*-G-NH2] ({CH2CO}-FVDTTS[NMeF][Phe(4-CF3)][NMeA]ESPCG-NH2; thioether N-13) yielded a Maximum % inhibition of 97%. With `CC(C)[C@@H]1NC(=O)[C@H](Cc2ccccc2)NC(=O)CSC[C@@H](C(=O)NCC(N)=O)NC(=O)[C@@H]2CCCN2C(=O)[C@H](CO)NC(=O)[C@H](CCCCN)NC(=O)[C@H](C)N(C)C(=O)[C@H](Cc2ccc(-c3ccccc3)cc2)NC(=O)[C@H](C)N(C)C(=O)[C@H](CO)NC(=O)[C@H]([C@@H](C)O)NC(=O)[C@H]([C@@H](C)O)NC(=O)[C@H](CC(=O)O)NC1=O` [Example 1-7, Ac*-F-V-D-T-T-S-(N-Me)A-B-(N-Me)A-K-S-P-C*-G-NH2] ({CH2CO}-FVDTTS[NMeA][Bip][NMeA]KSPCG-NH2; thioether N-13), the Maximum % inhibition is on record as 60%. In the case of `CC(C)[C@@H]1NC(=O)[C@H](Cc2ccccc2)NC(=O)CSC[C@@H](C(=O)NCC(N)=O)NC(=O)[C@@H]2CCCN2C(=O)[C@H](CO)NC(=O)[C@H](CC(=O)O)NC(=O)[C@H](C)N(C)C(=O)[C@H](Cc2ccc(-c3ccccc3)cc2)NC(=O)[C@H](C)N(C)C(=O)[C@H](Cc2ccc(-c3ccccc3)cc2)NC(=O)[C@H]([C@@H](C)O)NC(=O)[C@H]([C@@H](C)O)NC(=O)[C@H](CO)NC1=O` [Example 1-8, Ac*-F-V-S-T-T-B-(N-Me)A-B-(N-Me)A-D-S-P-C*-G-NH2] ({CH2CO}-FVSTT[Bip][NMeA][Bip][NMeA]DSPCG-NH2; thioether N-13), the Maximum % inhibition was 58%. The same measure, in the same setting: in the case of `CC(C)[C@@H]1NC(=O)[C@H](Cc2ccccc2)NC(=O)CSC[C@@H](C(=O)NCC(N)=O)NC(=O)[C@@H]2CCCN2C(=O)[C@H](CCCNC(=N)N)NC(=O)[C@H](CC(=O)O)NC(=O)[C@H](C)N(C)C(=O)[C@H](Cc2ccc(-c3ccccc3)cc2)NC(=O)[C@H](Cc2ccccc2)N(C)C(=O)[C@H](CO)NC(=O)[C@H]([C@@H](C)O)NC(=O)[C@H]([C@@H](C)O)NC(=O)[C@H](CO)NC1=O` [Example 1-9, Ac*-F-V-S-T-T-S-(N-Me)F-B-(N-Me)A-D-R-P-C*-G-NH2] ({CH2CO}-FVSTTS[NMeF][Bip][NMeA]DRPCG-NH2; thioether N-13) it was 35%; in that of `CC(C)[C@@H]1NC(=O)[C@H](Cc2ccccc2)NC(=O)CSC[C@@H](C(=O)NCC(N)=O)NC(=O)[C@@H]2CCCN2C(=O)[C@H](CO)NC(=O)[C@H](CCC(=O)O)NC(=O)[C@H](C)N(C)C(=O)[C@H](Cc2ccc(-c3ccccc3)cc2)NC(=O)[C@H](C)N(C)C(=O)[C@H](Cc2ccc(-c3ccccc3)cc2)NC(=O)[C@H]([C@@H](C)O)NC(=O)[C@H]([C@@H](C)O)NC(=O)[C@H](CC(=O)O)NC1=O` [Example 1-10, Ac*-F-V-D-T-T-B-(N-Me)A-B-(N-Me)A-E-S-P-C*-G-NH2] ({CH2CO}-FVDTT[Bip][NMeA][Bip][NMeA]ESPCG-NH2; thioether N-13), 90%; in that of `CC(C)[C@@H]1NC(=O)[C@H](Cc2ccccc2)NC(=O)CSC[C@@H](C(=O)NCC(N)=O)NC(=O)[C@@H]2CCCN2C(=O)[C@H](CCCNC(=N)N)NC(=O)[C@H](CCC(=O)O)NC(=O)[C@H](C)N(C)C(=O)[C@H](Cc2ccc(C(F)(F)F)cc2)NC(=O)[C@H](C)N(C)C(=O)[C@H](Cc2ccc(C(F)(F)F)cc2)NC(=O)[C@H]([C@@H](C)O)NC(=O)[C@H]([C@@H](C)O)NC(=O)[C@H](CO)NC1=O` [Example 1-11, Ac*-F-V-S-T-T-(p-CF3)F-(N-Me)A-(p-CF3)F-(N-Me)A-E-R-P-C*-G-NH2] ({CH2CO}-FVSTT[Phe(4-CF3)][NMeA][Phe(4-CF3)][NMeA]ERPCG-NH2; thioether N-13), 55%.

The same experiment, now with this note: TR-FRET; Human PCSK9 Alexa Fluor 647 and Human LDLR extracellular domain-Europium Kryptate.
For `CC(C)[C@@H]1NC(=O)[C@H](Cc2ccccc2)NC(=O)CSC[C@@H](C(=O)NCC(N)=O)NC(=O)[C@@H]2CCCN2C(=O)[C@H](CO)NC(=O)[C@H](CCC(=O)O)NC(=O)[C@H](C)N(C)C(=O)[C@H](Cc2ccc(C(F)(F)F)cc2)NC(=O)[C@H](Cc2ccccc2)N(C)C(=O)[C@H](CO)NC(=O)[C@H]([C@@H](C)O)NC(=O)[C@H]([C@@H](C)O)NC(=O)[C@H](CC(=O)O)NC1=O` [Example 1-6, Ac*-F-V-D-T-T-S-(N-Me)F-(p-CF3)F-(N-Me)A-E-S-P-C*-G-NH2] ({CH2CO}-FVDTTS[NMeF][Phe(4-CF3)][NMeA]ESPCG-NH2; thioether N-13), the IC50 (in general, the concentration that gives 50% inhibition) was found to be 12 nM. That is a double-digit nanomolar value.

`CC(C)[C@@H]1NC(=O)[C@H](Cc2ccccc2)NC(=O)CSC[C@@H](C(=O)NCC(N)=O)NC(=O)[C@@H]2CCCN2C(=O)[C@H](CO)NC(=O)[C@H](CCCCN)NC(=O)[C@H](C)N(C)C(=O)[C@H](Cc2ccc(-c3ccccc3)cc2)NC(=O)[C@H](C)N(C)C(=O)[C@H](CO)NC(=O)[C@H]([C@@H](C)O)NC(=O)[C@H]([C@@H](C)O)NC(=O)[C@H](CC(=O)O)NC1=O` [Example 1-7, Ac*-F-V-D-T-T-S-(N-Me)A-B-(N-Me)A-K-S-P-C*-G-NH2] ({CH2CO}-FVDTTS[NMeA][Bip][NMeA]KSPCG-NH2; thioether N-13) gave an IC50 of 410 nM.

The record behind these values is US12209144B2, “Cyclic peptides as proprotein convertase subtilisin/kexin type 9 (PCSK9) inhibitors for the treatment of metabolic disorders” (Novartis AG, priority 2018, dated 2025).
